How the values were obtained:
[1] = tested on: EB–DNA adduct (CT DNA); assay: Competitive study with EB (EB–DNA fluorescence quenching); type: binding, calf; settings: for Ksv, Stern–Volmer constant: EB–DNA adduct; for ΔI/Io, percentage of EB–DNA fluorescence quenching: [EB] = 20 μM, [DNA] = 26 μM, λexc 540 nm, λem 592 nm; for kq, EB–DNA quenching constant: τo = 23 ns; for EB–DNA relative fluorescence emission intensity, % of the initial (I/Io): λemission = 592 nm, final value (up to), Figure S14
Protocol: Ethidium bromide is a typical marker of intercalation because it can intercalate between adjacent DNA bases with its planar phenanthridine ring.
The fluorescence emission spectra of the EB–DNA adduct ([EB] = 20 μM, [DNA] = 26 μM) in the absence and presence of the compounds were recorded at increasing amounts of the respective compounds. […] As a conclusion, an intercalative interaction of the complexes with CT DNA can be proposed.
The values of the Stern–Volmer constants (Ksv) for the compounds were calculated using the linear Stern–Volmer equation (Equation (S2)) and were of the order of 10^5 M^−1 (Table 8), indicating tight binding of the complexes with DNA [61]. The Ksv values for the complexes are in the range found for a number of metal(II)–quinolone complexes, and complex 12 presents the highest Ksv value (Ksv = 7.25(±0.30) × 10^5 M^−1) among the compounds studied. In addition, the EB–DNA quenching constants (kq) for the compounds were calculated with Equation (S3), assuming τo = 23 ns as the fluorescence lifetime. The values of kq (Table 8) are much higher than the value of 10^10 M^−1s^−1, indicating a static mechanism of EB–DNA fluorescence quenching induced by the compounds, which can result from the formation of a new adduct apparently consisting of each complex and DNA [61].
In order to determine and confirm the DNA–binding mode of the compounds, a competitive study with EB as an intercalating marker is performed b y fluorescence emission spectroscopy.
Therefo re, the E B–displacing abilit y of the compounds from its EB –DN A conjugate was ex amined.
The DNA–EB adduct was prepared b y addition of 20 μM EB and 26 μM CT DNA in buffer solution (150 mM NaCl and 15 mM trisodium citrate at pH 7.0). The potential intercalation of the compounds between the DNA–bases was studied by the addition of a certain amount of the compound solution into the EB–DNA adduct solution. The influence of the compounds on the EB – DNA solution was monitored through the changes of the fluorescence emission spectra at excitation […]
wavelen gth (λex ) at 540 nm [S3]. […]
room temperature in solution or in the presence of DNA, under the same experimental conditions (λex = 540 nm). Bearing t hat in mind, the observed quenching of the EB–DNA solution is evidentl y associated to the displacement of EB from its EB–DNA adduct.
The quenching effici ency (KSV) for each compound was assessed according to the Stern – Volmer equation: Io =1+ k τ [Q] = 1+ K [Q], (eq. S2) [S3] where I0 and I = the fluorescence […]
emission intensities of EB–DNA in the absence and presence of the quencher, respectivel y, [Q] = the concentration of the quencher (i.e. compounds). KSV is obtained from t he Stern–Volmer plots b y the slope of the diagram I0/ I versus [Q]. Taking τ0 = 23 ns as the fluorescence lifetime of the EB– DNA s ystem [S5], the EB –DNA quenching constants (k q) of the compounds can be determined accordin g to eq.S3: K SV = kqτo . […]
[S2] Irgi, E.P.; Geromichalos, G.D.; Balala, S.; Kljun, J.; Kalogiannis, S.; Papadopoulos, A.; Turel, I.; Psomas, G. Cobalt(II) complexes with quinolone antimicrobial drug oxolinic acid: […]
[ S 5] Heller, D.P.; Greenstock, C.L. Fluorescence lifetime analysis of DNA intercalated ethidium bromide and quenching by free d ye. Biophys. Chem . 1994, 50, 305–312.

[2] = tested on: Bacillus subtilis ATCC 6633; assay: Antimicrobial activity, MIC determination; type: cell-based; settings: B. subtilis; 24-h incubation, 37°C
Protocol: (§1) The in vitro antimicrobial activity of the compounds was evaluated by determining the minimum inhibitory concentration (MIC) against the Gram-positive microorganisms Staphylococcus aureus ATCC 6538 (S. aureus) and Bacillus subtilis ATCC 6633 (B. subtilis) and the Gram-negative microorganism Xanthomonas campestris ATCC 1395 (X. campestris). The affinity of the compounds for bovine serum albumin (BSA) and human serum albumin (HSA) was studied by fluorescence emission spectroscopy, and the corresponding binding constants were determined. Furthermore, the interaction of the compounds with calf-thymus DNA (CT DNA) was investigated to determine the possible mode of interaction by the following methods: (i) UV–vis spectroscopy (where the DNA-binding constants of the complexes (Kb) were also determined), (ii) DNA-viscosity measurements, (iii) cyclic voltammetry and (iv) competitive DNA-binding studies with the classic intercalator ethidium bromide (EB) performed by fluorescence emission spectroscopy.
(§2) Three bacterial strains, one Gram(−) (X. campestris) and two Gram(+) (S. aureus and B. subtilis), were used in order to test the antimicrobial activity of the compounds.
(§3) The antimicrobial activity of the compounds was evaluated b y determining their respective MIC values towards one Gram–( –) (Xanthomonas campestris ATCC 1395 (X. campestris)) and two Gram–(+) (Staphylococcus aureus ATCC 6538 (S. aureus) and Bacillus subtilis ATCC 6633 (B. subtilis)) bacterial species. Cultures of these microbial strains were grown on a rich selective agar medium and stored at 4°C. The selective media used were Nutrient Agar or Broth for B. subtilis and S. aureus, and Yeast Mold Agar or Broth for X. campestris . Cells picked from the surface of the stored cultures were used to initiate liquid pre–cultures of the same selective medium at an initial turbidity of roughl y 1 McFarland unit. Pre–cultures were incubated for 24 h in a rotar y sh aking incubator and subsequently the y were used to inoculate the test cultures used for the determination of MIC at an initial turbidity of 0.5 McFarland units. The test cultures consisted of Mueller–Hinton broth (Deben Diagnostics Ltd) containing different concentrations of the compounds. Different concentrations were achieved as follows: the compounds were freshly dissolved in DMSO to a concentration of 1 mg/mL and they were diluted with DMSO, using the method of progressive double dilution. Therefore, working solutions with decreasing concentrations of the compounds under investigation were achieved. The working solutions were subsequently diluted to the final desired concentration b y addition to the growth medium at a proportion of 2:98. MIC values were determined as the lowest concentrations of the tested compounds that inhibited visible growth of each respective organism after a 24–h incubation [ S1]. Bacterial growth was determined b y measuring the turbidit y of appropriatel y diluted cultures at 600 nm with reference to equall y diluted sterile growth medium and the inhibition achieved was calculated b y comparing the turbidit y of each culture to the average of the turbidit y of three non–inhibited cultures. All test cultures were grown in triplicates and for the determination of MIC, growth had to be inhibited in at least two cultures of the triplicate. In cubation temperatur e at all stages was 37°C ex cept for X. campestris t h at was cultivated at 28°C [S2]. […]
(§4) The fluorescence spectra of the compounds were recorded under the same experimental conditions and presented a low–intensity emission band in the region 405–410 nm .

[3] = tested on: Staphylococcus aureus ATCC 6538; assay: Antimicrobial activity, MIC determination; type: cell-based; settings: S. aureus; 24-h incubation, 37°C
Protocol: as §1, §2, §3, §4

[4] = tested on: Xanthomonas campestris ATCC 1395; assay: Antimicrobial activity, MIC determination; type: cell-based; settings: X. campestris; 24-h incubation, 28°C
Protocol: as §1, §2, §3, §4

Compound	Ksv, Stern–Volmer constant [1]	ΔI/Io, percentage of EB–DNA fluorescence quenching [1] [%]	kq, EB–DNA quenching constant [1]	MIC [2] [µg/mL]	MIC (values in parentheses) [2] [µM]	MIC [3] [µg/mL]	MIC (values in parentheses) [3] [µM]	MIC [4] [µg/mL]	MIC (values in parentheses) [4] [µM]	EB–DNA relative fluorescence emission intensity, % of the initial (I/Io) [1] [%]
CN1CCN(c2c(F)cc3c(=O)c(C(=O)[O-])cn(CCF)c3c2F)CC1.CN1CCN(c2c(F)cc3c(=O)c(C(=O)[O-])cn(CCF)c3c2F)CC1.[Ni+2].c1ccc(Nc2ccccn2)nc1 [complex 18, [Ni(flrx)2(bipyam)]]	3.02(±0.13) × 10^5 M^–1	59.3	1.31(±0.05) × 10^13 M^−1s^−1	8	8.3	8	8.3	32	33.0	
CN1CCN(c2c(F)cc3c(=O)c(C(=O)[O-])cn(CCF)c3c2F)CC1.CN1CCN(c2c(F)cc3c(=O)c(C(=O)[O-])cn(CCF)c3c2F)CC1.[Mn+2].c1ccc(Nc2ccccn2)nc1 [complex 10, [Mn(flrx)2(bipyam)]]	5.92(±0.14) × 10^5 M^–1	81.1	2.57(±0.06) × 10^13 M^−1s^−1	16	16.6	16	16.6	> 32	> 33.2	18.9
CN1CCN(c2c(F)cc3c(=O)c(C(=O)[O-])cn(CCF)c3c2F)CC1.CN1CCN(c2c(F)cc3c(=O)c(C(=O)[O-])cn(CCF)c3c2F)CC1.CO.CO.[Co+2] [complex 4, [Co(flrx)2(MeOH)2]]	1.36(±0.03) × 10^5 M^–1	64.1	5.93(±0.14) × 10^12 M^−1s^−1	8	9.3	4	4.6	16	18.6	35.9
CN1CCN(c2c(F)cc3c(=O)c(C(=O)[O-])cn(CCF)c3c2F)CC1.CN1CCN(c2c(F)cc3c(=O)c(C(=O)[O-])cn(CCF)c3c2F)CC1.O.O.[Mn+2] [complex 2, [Mn(flrx)2(H2O)2]]	6.07(±0.23) × 10^5 M^–1	74.4	2.64(±0.10) × 10^13 M^−1s^−1	4	4.7	4	4.7	16	18.7	15.6
CN1CCN(c2c(F)cc3c(=O)c(C(=O)[O-])cn(CCF)c3c2F)CC1.CN1CCN(c2c(F)cc3c(=O)c(C(=O)[O-])cn(CCF)c3c2F)CC1.[Cu+2] [complex 1, [Cu(flrx)2]]	2.18(±0.06) × 10^5 M^–1	62.2	9.47(±0.03) × 10^12 M^−1s^−1	8	10.0	8	10.0	8	10.0	37.8
CN1CCN(c2c(F)cc3c(=O)c(C(=O)[O-])cn(CCF)c3c2F)CC1.[Cl-].[Cu+2].c1ccc(Nc2ccccn2)nc1 [complex 7, [Cu(flrx)(bipyam)Cl]]	3.44(±0.06) × 10^5 M^–1	62.7	1.50(±0.03) × 10^13 M^−1s^−1	> 16	> 25.0	> 16	> 25.0	> 32	> 50.0	37.3
CN1CCN(c2c(F)cc3c(=O)c(C(=O)[O-])cn(CCF)c3c2F)CC1.CN1CCN(c2c(F)cc3c(=O)c(C(=O)[O-])cn(CCF)c3c2F)CC1.[Co+2].c1ccc(Nc2ccccn2)nc1 [complex 16, [Co(flrx)2(bipyam)]]	3.77(±0.12) × 10^5 M^–1	70.7	1.64(±0.05) × 10^13 M^−1s^−1	8	8.3	8	8.3	16	16.5	29.3
